Experimental data: patent US6440690B1, “Peptides for the activation of the immune system in humans and animals” (priority 1995, dated 2002)
“Also recorded” adds a separate entry of the source. Ends that are not written are not given here.

What was measured:
Leishmania major [1] = experiment: Murine cutaneous leishmaniasis, drug administration to infected Balb/c mice (TABLE V); assay type: in vivo
Text: To investigate the peptide's efficacy in affecting leishmania parasites in vivo, murine cutaneous-leishmaniasis models were used in which mice inoculated with Leishmania major promastigotes were allowed to develop a characteristic cutaneous lesion that attained a mean diameter of […] at day 27 of inoculation. Frommel et al., 1988 , Infection and Immunity 56:843. Treatment consisted of 3 peptide injections at intervals of 5 days and was compared with the effect induced by sodium stibogluconate, the current anti-leishmaniasis drug of choice. After injections, samples drawn periodically from the lesion area were analyzed for assessment of parasites evolution.
Methods: Female mice, 6 to 8 weeks old, were inoculated with Leishmania major promastigotes (1×10^6) at the proximal portion of the tail as described in Frommel et al., 1988, Infection and Immunity 56:843. […] Simultaneously, evolution of the cutaneous lesion was assessed by direct measurement of the necrotic zone of the lesion.
Methods. Cytokine concentrations in serum of treated and untreated Balb/c mice were determined by enzyme-immunoassay (Kit Genzyme®) using murine anti-IFN-γ or anti-TNF-α monoclonal antibodies and the corresponding rabbit polyclonal antibodies conjugated to peroxidase, following the manufacturer instructions.

Leishmania major [2] = experiment: Murine cutaneous leishmaniasis, SPYY i.v. in Balb/c mice; assay type: in vivo; details: same doses as SPYY, 6 mice
Pseudonomas aeruginosa = details: U.S. Pat. No. 5,221,664; cited from earlier work
[3] = system: pathogenic microorganisms including bacteria, yeasts, filamentous fungi and protozoa; experiment: Antimicrobial activity on the spectrum of microorganisms of TABLE I; assay type: cell-based; details: same experimental conditions
Procedure: Methods. […] Antimicrobial assays were performed as described in Mor and Nicolas, 1994, J. Biol. Chem. 269:1934-1939. The effect on leishmania was assessed after 1 hour peptide exposure by counting living cells following trypan blue […]. Promastigotes were cultured (1×10^5 cells/ml) at 26° C. […] Trop. Med. Parasitol. 78:423-425, and cultured (1×10^4 cells/ml) at 37° C. Reversibility of inhibition was assessed by incubating 0.5 ml suspension containing 1×10^6 cells/ml in culture media in presence of peptide concentration of 0.2 mg/ml. After various incubation periods, aliquots were centrifuged at 900 g, the pellet washed and reincubated for 24 hours in fresh culture medium.
To verify the reversibility of inhibition, treated suspensions were thoroughly washed at various periods and reincubated in fresh medium.

[4] = Dissipation of Diffusion Potential Assay (membrane permeation); details: SUV pretreated with diS-C2-5 and valinomycin
Procedure: Methods: Small unilamellar vesicles (SUV) were prepared by sonication of PC/PS (1:1 w/w) and cholesterol (10% by weight) as described in Shai et al., 1991, J. Biol. Chem. 266:22346-54. Membrane permeation was assessed using the diffusion potential assay. Sims et al., 1974, Biochemistry 13:3315-3330; Shai et al., 1991, J. Biol. Chem. 266:22346-54. […] Maximal activity of the peptides was plotted versus peptide/lipid molar ratio.

Leishmania = details: 300 mg/kg for 20-40 injections; cited from earlier work

O.O.O.O.O.O.O.O.O.O=C([O-])[C@@H]1[O][Sb]2([O-])([O][Sb]34([OH])[O][C@H]([C@H](O)CO)[C@H]([O]3)[C@H](C(=O)[O-])[O]4)[O][C@H]([C@H](O)CO)[C@@H]1[O]2.[Na+].[Na+].[Na+] [NaSG, sodium stibogluconate]
outcome of the cutaneous lesion / disease (Leishmania major [1]; Balb/c, up to twelve weeks post inoculation and later): reduced; also recorded: complete healing or skin cicatrization were not observed | reduction of number of parasites and lesion size (Leishmania major [1]; mouse, in vivo): partially effective

EEEKRENEDEEKQDDEQSEM [acidic peptide, helical acidic synthetic peptide, control]
control peptide compared with physiological water control (Leishmania major [2]): No significant differences

Magainin II: magainin peptide
MIC (Pseudonomas aeruginosa): 256 µM

NPY: human NPY, 36-residue peptide of the pancreatic peptide family
antimicrobial potency compared with SPYY [3]: inhibitory activity at comparable concentrations

PEEMNKYLTALRHYINLVTRQRY-NH2 [SPYY14-36]
membrane permeation [4]: permeated phospholipid vesicles | antimicrobial potency compared with SPYY [3]: comparable molar potency

PYY: human PYY, 36-residue peptide of the pancreatic peptide family
antimicrobial potency compared with SPYY [3]: inhibitory activity at comparable concentrations

meglumine antimoniate [Glucantime]
outcome of therapy (Leishmania): does not cure the disease but only results in a transient reduction of the symptoms
